Measurements: patent US20120083518A1, “Cancer Treatment Targeting BRCA1-IRIS” (priority 2010, published 2012)

Experiments:
Format in all cases: cell-based, human
induced IRIS3 cells = assay: TUNEL detection (FragEL DNA fragmentation kit)
Procedure: (§1) HME and induced IRIS3 (72 h) cells were exposed to 40 mJ/cm^2 UVC, 10 μM of etoposide or 15 μM of H2O2 in the presence or absence of 10 μM of SB203580, p53 siRNA or 10 μM of CCT007093.
(§2) The Flurescein FragEL DNA Fragmentation Detection Kit was used according to the supplier (Calbiochem) protocol.

HME cells = assay: TUNEL detection (FragEL DNA fragmentation kit)
Procedure: as §1, §2

SKBR3 cells = assay: LIVE/DEAD cell death assay; settings: for level of cell death: SKBR3, all conditions, 10 μM etoposide or 15 μM H2O2
Procedure: (§3) MCF7 and SKBR3 cell lines transfected with luciferase or BRCA1-IRIS siRNAs in the presence or absence of p38MAPK inhibitor (SB203580) or p53 siRNA were exposed to 40 mJ/cm^2 UVC, 10 μM etoposide or 15 μM H2O2. […] This was confirmed by phase-contrast cell counting (FIG. 9I) and trypan blue exclusion using ViCell (Beckman Coulter, Fullerton, Calif., USA, FIG. 9J).
(§4) The LIVE/DEAD Fixable Dead Cell Stain Kit was used according to the supplier (Invitrogen) protocol.

MCF7 cells = assay: LIVE/DEAD cell death assay; settings: for level of cell death: MCF7, all conditions, 10 μM etoposide or 15 μM H2O2
Procedure: as §3, §4

[1] = system: p53 and p38MAPK phosphorylation in IRIS1 cells; assay: Immunoblot of p-p53 and p-p38MAPK after etoposide
Procedure: (§5) Induced IRIS2 on the other hand maintained high level of BRCA1-IRIS, p53 and WIP1 even in the presence of 50 μM of etoposide and had similar level of total p38MAPK (FIG. 8I). Etoposide treatment triggered p53 phosphorylation in IRIS1 but not in the induced IRIS2 cells (Supplementary FIG. 8I).

[2] = system: p53 and p38MAPK phosphorylation in induced IRIS2 cells; assay: Immunoblot of p-p53 and p-p38MAPK after etoposide
Procedure: as §5

[3] = induced IRIS3, 10 μM etoposide or 15 μM H2O2
[4] = HME, 10 μM etoposide or 15 μM H2O2

Row | SMILES | number of TUNEL+ cells (induced IRIS3 cells; [3]) | number of TUNEL+ cells (HME cells; [4]) | level of cell death (SKBR3 cells) | level of cell death (MCF7 cells) | p-p38MAPK level ([1]; IRIS1, after etoposide treatment) | p53 phosphorylation ([1]; IRIS1, etoposide 5, 10 or 50 μM, 24 h) | p-p38MAPK level ([2]; induced IRIS2, after etoposide treatment) | p53 phosphorylation ([2]; induced IRIS2, etoposide 5, 10 or 50 μM, 24 h) | number of TUNEL+ cells (induced IRIS3 cells; induced IRIS3 under UVC, etoposide or H2O2, plus 10 μM SB203580 or p53 siRNA) | number of TUNEL+ cells (HME cells; HME under UVC, etoposide or H2O2, plus 10 μM SB203580 or p53 siRNA) | dead cells induced by BRCA1-IRIS silencing (SKBR3 cells; SKBR3, BRCA1-IRIS silenced plus SB203580 or p53 siRNA) | dead cells induced by BRCA1-IRIS silencing (MCF7 cells; MCF7, BRCA1-IRIS silenced plus SB203580 or p53 siRNA)
1 | COc1cc([C@@H]2c3cc4c(cc3[C@@H](O[C@@H]3O[C@@H]5CO[C@@H](C)O[C@H]5[C@H](O)[C@H]3O)[C@H]3COC(=O)[C@H]23)OCO4)cc(OC)c1O [etoposide] | only modestly increasing | markedly increased | increased | increased | increased significantly | triggered | sharply dropped | not | – | – | – | –
2 | C[S+]([O-])c1ccc(-c2nc(-c3ccncc3)c(-c3ccc(F)cc3)[nH]2)cc1 (stereo not shown) [SB203580] | – | – | – | – | – | – | – | – | stayed the same | significantly reduced | significantly reduced | significantly reduced
3 | OO [H2O2] | only modestly increasing | markedly increased | increased | increased | – | – | – | – | – | – | – | –
